One test deals with DOR. Particulars: cited from earlier work; for Ki: read-out: Ki, affinity binding to the DOR.
Test [1] addresses T1, human kappa opioid receptor (Homo sapiens, UniProt P41145).
T1 construct: FLAG; expressed in transfected cells
It is filed as cell-based.

A further test deals with MOR. Particulars: cited from earlier work; for Ki: read-out: Ki, affinity binding to the MOR.
The target in test [2] is T1, human kappa opioid receptor. It is filed as cell-based. This is another data set of the same source.
The next test has as its system KOR. Conditions: cited from earlier work; for Ki: read-out: Ki, affinity binding to the KOR.
Test [3] deals with T2, human mu opioid receptor (MOR1) (Homo sapiens, UniProt P35372).
T2 construct: FLAG; expressed in transfected cells
Type of test: cell-based. Particulars: HEK-MOR; ligand 10 μM, 1 hr; DAMGO 10 μM.

For test [4], the target named is T2, human mu opioid receptor (MOR1). It is filed as cell-based.
Test [5] addresses T1, human kappa opioid receptor. Type of test: cell-based. Particulars: read-out: IC50, single phase inhibition of BRL-52537 DMR.
The mark [6] stands for this setting: read-out: EC50, first phase of biphasic DMR dose response.
Setting [7] is: read-out: EC50, second phase of biphasic DMR dose response.

“Also recorded” adds a separate entry of the source. Where two headings read alike, the source gives them in different places.

One may read the Ki as the dissociation constant of the complex between target and ligand, obtained from inhibition or displacement. As a reminder, the EC50 is the concentration needed to bring the measured effect to its halfway point. A word on the IC50: it is the concentration needed to halve the response being measured.

T2 sequence (P35372 whole entry): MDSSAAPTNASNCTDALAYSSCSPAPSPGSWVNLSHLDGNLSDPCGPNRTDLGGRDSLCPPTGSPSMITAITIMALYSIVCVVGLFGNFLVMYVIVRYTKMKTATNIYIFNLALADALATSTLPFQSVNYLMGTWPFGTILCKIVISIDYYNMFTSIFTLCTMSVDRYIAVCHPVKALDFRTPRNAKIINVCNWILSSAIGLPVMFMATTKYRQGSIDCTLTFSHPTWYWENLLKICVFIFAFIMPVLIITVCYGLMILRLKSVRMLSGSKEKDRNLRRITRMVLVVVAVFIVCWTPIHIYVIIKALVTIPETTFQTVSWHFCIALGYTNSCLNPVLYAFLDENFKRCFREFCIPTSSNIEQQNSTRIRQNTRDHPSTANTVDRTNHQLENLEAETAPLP
T1 sequence (P41145 whole entry): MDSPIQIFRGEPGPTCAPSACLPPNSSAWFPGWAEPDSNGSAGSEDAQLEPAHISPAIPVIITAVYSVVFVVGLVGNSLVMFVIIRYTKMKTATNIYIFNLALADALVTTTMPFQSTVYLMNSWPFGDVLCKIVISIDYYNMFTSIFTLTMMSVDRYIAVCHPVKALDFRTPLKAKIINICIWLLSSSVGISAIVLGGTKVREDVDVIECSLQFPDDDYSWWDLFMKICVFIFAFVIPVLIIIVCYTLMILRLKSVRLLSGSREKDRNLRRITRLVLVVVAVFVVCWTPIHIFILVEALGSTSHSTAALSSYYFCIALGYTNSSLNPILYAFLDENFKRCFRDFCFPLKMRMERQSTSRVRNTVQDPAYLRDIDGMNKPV

On to Dynorphin B, for which the Ki on DOR was 12.8 nM.
For the molecule `COC(=O)[C@@H]1C[C@H](OC(C)=O)C(=O)[C@H]2[C@@]1(C)CC[C@H]1C(=O)O[C@H](c3ccoc3)C[C@]21C` [Salvinorin A], in test [1], the “DMR agonist activity classification, KOR” value is “Full agonist”. Also, the figures for the EC50 in the test on MOR (read-out: EC50 at the MOR) and in the test on KOR (read-out: EC50 at the KOR) were […] and […], respectively. For the same molecule, the “ligand DMR in PTX-pretreated cells” value in test [2] is reported as “detectable P-DMR”.
Regarding `COC(=O)/C=C/C(=O)N[C@@H]1CC[C@@]2(O)[C@H]3Cc4ccc(O)c5c4[C@@]2(CCN3CC2CC2)[C@H]1O5` [β-Funaltrexamine], the Ki at DOR is 48 nM; on MOR it was 0.33 nM; at KOR, 2.8 nM.
As for `Oc1ccc2c3c1O[C@H]1c4[nH]c5c(c4C[C@@]4(O)[C@@H](C2)N(CC2CC2)CC[C@]314)C[C@@]1(O)[C@H]2Cc3ccc(O)c4c3[C@@]1(CCN2CC1CC1)[C@H]5O4` [Nor-Binaltorphimine], in test [3], the “blockage of the DAMGO response” value was “partial blockage”. Further, the “DMR under all eight assay conditions” value in test [2] was “absence of any DMR; also recorded: did not trigger any DMR response under any conditions”.
With `C[C@@H](NC(=O)[C@@H](N)Cc1ccc(O)cc1)C(=O)NCC(=O)N(C)[C@@H](Cc1ccccc1)C(=O)NCCO` [DAMGO], in test [1], the “saturable DMR amplitude, first phase of biphasic dose response” value (“saturable DMR amplitude, first phase” for short) worked out at 139±6 pm and the “saturable DMR amplitude, second phase of biphasic dose response” value (“saturable DMR amplitude, second phase” for short) amounted to 200±8 pm. In test [4], the “DMR agonist activity classification, MOR” value was “Full agonist” and the “DMR response at 9 min poststimulation” value was 240±17 pm. For the same molecule, the Ki at KOR is more than 20000 nM.
As to (Met5)-Enkephalin, the Ki on DOR is 2 nM; at MOR, 3 nM; at KOR, 2.9 nM.
For `O=C(Cc1ccc(Cl)c(Cl)c1)N1CCCCC1CN1CCCC1` (stereo not drawn) [BRL-52537], in test [1], the “DMR agonist activity classification, KOR” value is “Full agonist”; the “DMR response at 9 min poststimulation” value turned out to be 213±21 pm; the “saturable DMR amplitude, first phase” value was 120±6 pm; the “saturable DMR amplitude, second phase” value is listed as 207±13 pm. For the same molecule, the EC50 in test [1] (setting [6]) was found to be 0.0356 ± 0.0031 nM. In addition, the EC50 in test [1] (setting [7]) was determined as 26 ± 1.9 nM. Also, the Ki on MOR is 1560 nM. The “ligand DMR in PTX-pretreated cells” value in test [2] is recorded as “detectable P-DMR”. The IC50 in test [5] came to 4.1 ± 0.23 nM. Further, on KOR, the Ki was 0.24 nM.
Turning to Nociceptin, the figures for the Ki at DOR, at MOR and at KOR were more than 1000 nM, 270 nM and more than 1000 nM, respectively.
In the case of `NC(=O)[C@H](Cc1ccccc1)NC(=O)[C@H](Cc1c[nH]c2ccccc12)NC(=O)[C@@H]1CCCN1C(=O)[C@@H](N)Cc1ccc(O)cc1` [Endomorphin-1], the inhibitory constant (Ki) at DOR is more than 500 nM.
In the case of `COC(=O)N1CCN(C(=O)Cc2ccc(Cl)c(Cl)c2)C(CN2CCCC2)C1` (stereo not drawn) [GR 89696], in test [1], the “DMR agonist activity classification, KOR” value is “Full agonist”. The “ligand DMR in PTX-pretreated cells” value in test [2] is listed as “detectable P-DMR”. The Ki on KOR is 41.7 nM.
Turning to `O=C1/C(=C/c2ccccc2)C[C@@]2(O)[C@H]3Cc4ccc(O)c5c4[C@@]2(CCN3CC2CC2)[C@H]1O5` [BNTX], the Ki was 0.66 nM on DOR, 18 nM at MOR and 55 nM on KOR. Moreover, in test [1], the “DMR agonist activity classification, KOR” value is recorded as “off-target”. In test [4], the “DMR agonist activity classification, MOR” value is given as “off-target”.
For Dynorphin A (1–13), the Ki on DOR was more than 1000 nM; on MOR, 31 nM; at KOR it was 0.98 nM.
In the case of `CC1(C)SSC(C)(C)[C@@H](NC(=O)[C@@H](N)Cc2ccc(O)cc2)C(=O)NCC(=O)N[C@@H](Cc2ccccc2)C(=O)N[C@H]1C(=O)O` [DPDPE], the Ki on MOR is 600 nM; on KOR it was 12000 nM.
Regarding `Oc1ccc2c3c1O[C@H]1c4oc5ccccc5c4C[C@@]4(O)[C@@H](C2)N(CC2CC2)CC[C@]314` [Naltriben], the Ki at DOR is 0.4 nM; on MOR, 80.8 nM; at KOR, more than 10000 nM. In test [3], the “blockage of the DAMGO response” value was “partial blockage”.
Consider `CN(C(=O)Cc1ccc(Cl)c(Cl)c1)[C@H](CN1CCCC1)c1cccc(N=C=S)c1` [DIPPA], for which the IC50 with DOR (read-out: IC50, affinity binding to the DOR) was more than 1000 nM; in the test on MOR (read-out: IC50, affinity binding to the MOR), 1800 nM; in test [5] it was 455 ± 32.3 nM; in the test on KOR (read-out: IC50, affinity binding to the KOR), 2.21 nM. In addition, the “DMR agonist activity classification, KOR” value in test [1] is given as “Full agonist”. Moreover, the “saturable DMR amplitude, first phase” value in test [1] was 138±8 pm. Moreover, in test [1], the “saturable DMR amplitude, second phase” value came to 205±9 pm. In addition, the EC50 in test [1] (setting [6]) came to 13.4 ± 1.5 nM; in test [1] (setting [7]), 240 ± 11.2 nM. Further, the “ligand DMR in PTX-pretreated cells” value in test [2] is given as “detectable P-DMR”.
“Dynorphin A (1–8) (YGGFLRRI; Dynorphin A(1-8); UniProt P01213 207-214, looked up, fragment) [Kappa agonist]”: the Ki on DOR was 32.6 nM; at MOR it was 22.3 nM. For the same molecule, the “DMR agonist activity classification, MOR” value in test [4] is “Full agonist”.
As for `C=CC[N+]1(C)CC[C@]23c4c5ccc(O)c4O[C@H]2C(=O)CC[C@@]3(O)[C@H]1C5` (stereo partly drawn) [Naloxone methiodide], the inhibition constant Ki on DOR is 204 nM; at MOR, 28.9 nM; at KOR, 1010 nM. Moreover, the “blockage of the DAMGO response” value in test [3] is “partial blockage”.
Turning to Dynorphin A (2–13), the Ki at KOR was 680 nM.
As for DTLET, the Ki on DOR is 22 nM; on KOR, more than 10000 nM. Moreover, the “DMR agonist activity classification, MOR” value in test [4] is “Full agonist”.
On to Deltorphin II, for which the Ki is 3.3 nM at DOR, more than 1000 nM at MOR and more than 1000 nM on KOR.
With `C=CCN1CCC2(C)c3cc(O)ccc3CC1C2C` (stereo not drawn) [SKF10047], the values for the Ki at DOR, at MOR and at KOR were 19000 nM, 1900 nM and 1600 nM, respectively.
For `CN(C(=O)Cc1ccc(Cl)c(Cl)c1)C(CN1CCCC1)c1cccc(OCC(=O)O)c1` (stereo not drawn) [ICI 204,448], the Ki at DOR was more than 1000 nM; on MOR, more than 1000 nM; at KOR, 2.69 nM.
In the case of `COc1ccc2c3c1O[C@H]1[C@@H](O)C=C[C@H]4[C@@H](C2)NCC[C@@]341` [(−)-Norcodeine], the Ki on MOR is 267 nM.
Turning to DSLET, the Ki on MOR is 120 nM. Also, the “DMR agonist activity classification, MOR” value in test [4] was “Full agonist”.
As to `Oc1ccc2c3c1O[C@H]1c4c(c5ccccc5n4Cc4ccccc4)C[C@@]4(O)[C@@H](C2)N(CC2CC2)CC[C@]314` [N-Benzylnaltrindole], the “IC50 ratio at the DOR” value in the test on DOR was 459. In addition, the “blockage of the DAMGO response” value in test [3] is on record as “partial blockage”. For the same molecule, in the test with MOR, the “IC50 ratio at the MOR” value is given as 11.2. Moreover, the “IC50 ratio at the KOR” value in the test with KOR was 1.3.
As to “α-Neoendorphin (YGGFLRKYPK; Alpha-neoendorphin; UniProt P01213 175-184, looked up)”, the Ki on DOR is 1.17 nM; on KOR it was 1.4 nM. Further, in test [1], the “DMR agonist activity classification, KOR” value is listed as “Full agonist”. In addition, the “ligand DMR in PTX-pretreated cells” value in test [2] is on record as “detectable P-DMR”.
On to `NC(=O)[C@H](Cc1ccccc1)NC(=O)[C@H](Cc1ccccc1)NC(=O)[C@@H]1CCCN1C(=O)[C@@H](N)Cc1ccc(O)cc1` [Endomorphin-2], for which the Ki on DOR is more than 500 nM; on MOR, 0.43 nM.
In the case of DADLE, the figures for the Ki at DOR, on MOR and on KOR were 0.63 nM, 150 nM and 1900 nM, respectively.
Regarding `C=CCN1CC[C@]23CCCC[C@H]2[C@H]1Cc1ccc(O)cc13` [Levallorphan], the Ki at DOR was 1 nM; on MOR, 1.7 nM; on KOR, 0.3 nM.
On to `Oc1ccc2c3c1O[C@H]1c4[nH]c5ccccc5c4C[C@@]4(O)[C@@H](C2)N(CC2CC2)CC[C@]314` [Naltrindole], for which, in test [3], the “blockage of the DAMGO response” value is listed as “partial blockage”.

The values above are taken from publication PMC3602246 (BMC Pharmacology & Toxicology, 2013).
